From paper PMC5565203 (Journal of medicinal chemistry, 2015)
Entries after “also recorded” stand apart in the source; their conditions may differ.

Tests used:
human Mcl-1 = human Mcl-1 (Homo sapiens, UniProt Q07820); test: FPA competition assay, displacement of FITC-Bak-BH3 peptide from Mcl-1; assay type: binding; conditions: for LE (ligand efficiency): binding to Mcl-1; for higher Mcl-1 Ki values compared to the corresponding four-atom linker analogs: three-atom linker compounds; for increased affinity for Mcl-1 compared to the initial fragment 2: four-atom linker compounds; for improvement in Mcl-1 affinity compared to the core fragment 3: compared to fragment 3
cellular Mcl-1 = cellular Mcl-1 (Homo sapiens, UniProt Q07820); test: Biotin streptavidin pull-down experiment in K562 cell lysates; assay type: binding; conditions: Western blot
Chain of cellular Mcl-1 (Q07820 whole entry): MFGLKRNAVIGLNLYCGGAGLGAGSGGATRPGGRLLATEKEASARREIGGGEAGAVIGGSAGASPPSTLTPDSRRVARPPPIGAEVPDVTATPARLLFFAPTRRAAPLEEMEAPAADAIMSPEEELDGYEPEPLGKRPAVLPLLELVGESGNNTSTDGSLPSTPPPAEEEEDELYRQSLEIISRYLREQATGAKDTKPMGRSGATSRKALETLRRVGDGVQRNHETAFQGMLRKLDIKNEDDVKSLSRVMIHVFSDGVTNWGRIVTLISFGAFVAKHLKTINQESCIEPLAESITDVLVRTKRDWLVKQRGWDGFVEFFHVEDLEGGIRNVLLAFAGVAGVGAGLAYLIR

Chain of human Mcl-1 (Q07820 172-327): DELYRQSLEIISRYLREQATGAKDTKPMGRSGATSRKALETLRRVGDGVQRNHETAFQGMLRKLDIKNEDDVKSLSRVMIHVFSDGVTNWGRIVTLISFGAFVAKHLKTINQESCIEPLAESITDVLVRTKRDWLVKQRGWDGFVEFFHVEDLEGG

CC1Cn2c(C(=O)O)cc3cccc(c32)S1 (stereo not shown) [Compound 2]
LE (ligand efficiency) (human Mcl-1): 0.38

O=C(O)c1cc2cccc3c2n1CCS3 [Compound 3]
LE (ligand efficiency) (human Mcl-1): 0.39

O=C(O)c1cc2cccc3c2n1CCC3 [Compound 4]
LE (ligand efficiency) (human Mcl-1): 0.35

Cc1c(C(=O)O)n2c3c(cccc13)SCC2 [Compound 5, 6-Methyl-2,3-dihydro-[1,4]thiazino[2,3,4-hi]indole-5-carboxylic acid]
LE (ligand efficiency) (human Mcl-1): 0.41

Cc1c(C(=O)O)n2c3c(cccc13)CCC2 [Compound 6, 1-Methyl-5,6-dihydro-4H-pyrrolo[3,2,1-ij]quinoline-2-carboxylic acid]
LE (ligand efficiency) (human Mcl-1): 0.35

Cc1c(C(=O)O)n2c3c(cccc13)OCC2 [Compound 7, 6-Methyl-2,3-dihydro-[1,4]oxazino[2,3,4-hi]indole-5-carboxylic acid]
LE (ligand efficiency) (human Mcl-1): 0.41

O=C(O)c1c(CCOc2cccc3ccccc23)c2cccc3c2n1CCS3 [Compound 16, 6-(2-(Naphthalen-1-yloxy)ethyl)-2,3-dihydro-[1,4]thiazino[2,3,4-hi]indole-5-carboxylic acid]
higher Mcl-1 Ki values compared to the corresponding four-atom linker analogs (human Mcl-1): > 10 fold

O=C(O)c1c(CCOc2cccc3ccccc23)c2cccc3c2n1CCC3 [Compound 17, 1-(2-(Naphthalen-1-yloxy)ethyl)-5,6-dihydro-4H-pyrrolo[3,2,1-ij]quinoline-2-carboxylic acid]
higher Mcl-1 Ki values compared to the corresponding four-atom linker analogs (human Mcl-1): > 10 fold

O=C(O)c1c(CCOc2cccc3ccccc23)c2cccc3c2n1CCO3 [Compound 18, 6-(2-(Naphthalen-1-yloxy)ethyl)-2,3-dihydro-[1,4]oxazino[2,3,4-hi]indole-5-carboxylic acid]
higher Mcl-1 Ki values compared to the corresponding four-atom linker analogs (human Mcl-1): > 10 fold

O=C(O)c1c(CCCOc2cccc3ccccc23)c2cccc3c2n1CCS3 [Compound 19, 6-(3-(Naphthalen-1-yloxy)propyl)-2,3-dihydro-[1,4]thiazino[2,3,4-hi]indole-5-carboxylic acid]
increased affinity for Mcl-1 compared to the initial fragment 2 (human Mcl-1): more than 2 orders of magnitude

O=C(O)c1c(CCCOc2cccc3ccccc23)c2cccc3c2n1CCC3 [Compound 20, 1-(3-(Naphthalen-1-yloxy)propyl)-5,6-dihydro-4H-pyrrolo[3,2,1-ij]quinoline-2-carboxylic acid]
increased affinity for Mcl-1 compared to the initial fragment 2 (human Mcl-1): more than 2 orders of magnitude

O=C(O)c1c(CCCOc2cccc3ccccc23)c2cccc3c2n1CCO3 [Compound 21, 6-(3-(Naphthalen-1-yloxy)propyl)-2,3-dihydro-[1,4]oxazino[2,3,4-hi]indole-5-carboxylic acid]
increased affinity for Mcl-1 compared to the initial fragment 2 (human Mcl-1): more than 2 orders of magnitude

O=C(O)c1c(CCCOc2ccc3c(c2)CCCC3)c2cccc3c2n1CCS3 [Compound 28, 6-(3-((5,6,7,8-Tetrahydronaphthalen-2-yl)oxy)propyl)-2,3-dihydro-[1,4]thiazino[2,3,4-hi]indole-5-carboxylic acid]
reduction in affinity to Mcl-1 (human Mcl-1; compared to regioisomer 26 and 1-naphthyl analog 19): 3 fold

Cc1cc(OCCCc2c(C(=O)O)n3c4c(cccc24)SCC3)ccc1Cl [Compound 29, 6-(3-(4-Chloro-3-methylphenoxy)propyl)-2,3-dihydro-[1,4]thiazino[2,3,4-hi]indole-5-carboxylic acid]
improvement in Mcl-1 affinity compared to the core fragment 3 (human Mcl-1): 240 fold

Cc1cc(OCCCc2c(C(=O)O)n3c4c(cccc24)SCC3)cc(C)c1Cl [Compound 30, 6-(3-(4-chloro-3,5-dimethylphenoxy)propyl)-2,3-dihydro-[1,4]thiazino[2,3,4-hi]indole-5-carboxylic acid]
improvement in Mcl-1 affinity compared to the core fragment 3 (human Mcl-1): 720 fold

Cc1cc(OCCCc2c(C(=O)O)n3c4c(c(Cl)ccc24)CCC3)cc(C)c1Cl [Compound 34, 7-chloro-1-(3-(4-chloro-3,5-dimethylphenoxy)propyl)-5,6-dihydro-4H-pyrrolo[3,2,1-ij]quinoline-2-carboxylic acid]
inhibition of biotin-MS-1 pulldown of cellular Mcl-1 (cellular Mcl-1): blocks the interaction with biotin MS-1 in a dose-dependent manner; also recorded: inhibits binding of biotin-MS-1 to Mcl-1 in cell lysates
